Source: patent US20210221822A1, “TRICYCLIC DERIVATIVES INHIBITOR, PREPARATION METHOD, AND APPLICATIONS THEREOF” (Jiangsu Hansoh Pharmaceutical Group Co., Ltd., priority 2018, published 2021)
Where two headings read alike, the source gives them in different places.

What was measured:
PI3Kα = molecular target: T1, PI3Kα (Homo sapiens, UniProt P42336); test: ADP-Glo lipid kinase assay, PI3Kα kinase activity; format: biochemical; settings: ADP-Glo; 0.1 nM enzyme, 120 min, 50 μM ATP
T1 construct: purchased Promega V1721
T1 sequence (P42336 whole entry): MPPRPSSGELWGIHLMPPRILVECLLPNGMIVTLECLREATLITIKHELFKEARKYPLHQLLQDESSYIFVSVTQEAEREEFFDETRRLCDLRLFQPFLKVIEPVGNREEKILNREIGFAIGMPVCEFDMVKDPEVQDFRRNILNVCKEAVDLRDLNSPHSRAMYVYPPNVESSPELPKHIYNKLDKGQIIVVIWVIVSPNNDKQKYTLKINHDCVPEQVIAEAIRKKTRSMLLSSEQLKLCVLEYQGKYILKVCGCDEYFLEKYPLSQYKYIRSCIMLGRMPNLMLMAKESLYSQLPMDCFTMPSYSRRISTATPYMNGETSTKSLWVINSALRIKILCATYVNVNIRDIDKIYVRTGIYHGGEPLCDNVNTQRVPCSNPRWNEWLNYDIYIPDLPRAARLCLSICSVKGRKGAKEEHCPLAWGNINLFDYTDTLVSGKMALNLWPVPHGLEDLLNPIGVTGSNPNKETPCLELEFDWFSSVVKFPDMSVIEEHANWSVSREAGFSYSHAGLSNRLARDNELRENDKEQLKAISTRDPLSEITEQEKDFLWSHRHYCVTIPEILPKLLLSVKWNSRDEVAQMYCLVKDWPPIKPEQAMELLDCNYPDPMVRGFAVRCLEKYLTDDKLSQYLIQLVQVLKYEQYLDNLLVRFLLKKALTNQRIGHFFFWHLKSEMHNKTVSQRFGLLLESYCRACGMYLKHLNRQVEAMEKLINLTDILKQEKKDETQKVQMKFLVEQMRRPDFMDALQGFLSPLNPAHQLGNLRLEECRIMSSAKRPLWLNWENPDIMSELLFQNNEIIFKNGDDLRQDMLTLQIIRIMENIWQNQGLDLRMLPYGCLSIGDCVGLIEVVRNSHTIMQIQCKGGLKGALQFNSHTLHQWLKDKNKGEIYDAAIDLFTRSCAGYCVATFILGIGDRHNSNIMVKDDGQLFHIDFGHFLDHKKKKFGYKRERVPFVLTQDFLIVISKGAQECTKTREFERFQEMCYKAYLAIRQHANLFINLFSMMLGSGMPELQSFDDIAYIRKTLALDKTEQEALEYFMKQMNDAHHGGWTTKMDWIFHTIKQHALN
T1 sequence (P27986 whole entry partner): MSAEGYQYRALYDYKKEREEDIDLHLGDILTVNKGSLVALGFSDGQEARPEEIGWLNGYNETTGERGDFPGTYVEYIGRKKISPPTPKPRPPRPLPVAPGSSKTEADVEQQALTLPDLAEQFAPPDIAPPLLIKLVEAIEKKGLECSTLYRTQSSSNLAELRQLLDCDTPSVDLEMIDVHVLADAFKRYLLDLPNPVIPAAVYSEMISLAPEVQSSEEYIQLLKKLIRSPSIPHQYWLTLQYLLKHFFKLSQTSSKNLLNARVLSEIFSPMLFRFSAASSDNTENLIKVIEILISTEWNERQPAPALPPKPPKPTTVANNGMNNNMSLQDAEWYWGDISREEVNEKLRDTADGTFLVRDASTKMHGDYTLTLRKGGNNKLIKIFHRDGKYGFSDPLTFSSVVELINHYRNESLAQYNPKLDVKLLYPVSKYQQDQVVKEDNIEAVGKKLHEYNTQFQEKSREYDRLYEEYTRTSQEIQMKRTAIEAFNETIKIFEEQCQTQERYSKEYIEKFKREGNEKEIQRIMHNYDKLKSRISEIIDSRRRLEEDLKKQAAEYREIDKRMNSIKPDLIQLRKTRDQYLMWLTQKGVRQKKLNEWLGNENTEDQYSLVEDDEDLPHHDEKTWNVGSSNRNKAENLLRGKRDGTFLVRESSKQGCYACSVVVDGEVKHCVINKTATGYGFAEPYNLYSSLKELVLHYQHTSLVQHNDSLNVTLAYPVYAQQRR
Protocol: (§1) Experimental method: Promega's ADP-Glo lipid kinase assay method (Promega #V9102) was applied in this experiment. Lipid kinase PI3Kα/β/γ/δ catalyzed the generation of ADP from ATP in the presence of the substrate PIP2: 3PS and ATP. The lipid kinase activity was characterized by measuring the ADP content in the reaction, and the half inhibitory concentration IC50 of the compound on inhibiting PI3Kα/β/γ/δ kinase activity was thus obtained.
(§2) The kinase reaction was carried out in a white 384-well plate (Perkin Elmer #6007299). 2 μL of the compound solution of different concentrations diluted with ddH2O containing 1% DMSO was added to each well. 2 μL of ddH2O containing 1% DMSO was added to the positive control well. 2 μL of 0.1-2 nM PI3K kinase solution diluted with 5× kinase buffer (HEPES 250 mM, MgCl2 15 mM, NaCl 250 mM, BSA 0.05%) was added to each well. 2 μL of 5× kinase buffer was added to the negative control well. 4 μL of 50 μM substrate PIP2: 3PS (Promega #V1701) formulated with 10× Dilution buffer and ddH2O was added to all wells. Finally, 2 μL of […] ATP solution diluted with water was added to start the reaction. After the reaction was carried out at room temperature for 90 to 120 minutes, 10 μL of ADP-Glo Reagent (containing 10 mM MgCl2) was added to each well, and reacted at room temperature for 60 minutes to remove excess ATP in the reaction. 20 μL of Kinase Detection Reagent was added to each well, and reacted at room temperature in the dark for 20 minutes. The chemiluminescence value was measured by the BioTek Synergy H1 microplate reader.
(§3) The percentage inhibition data of the compound-treated well was calculated through the positive control well (DMSO control well) and negative control well (no kinase added) on the plate {% inhibition rate=100−[(test compound value−negative control value)]/(positive control value−negative control value)×100}. The IC50 value was calculated by fitting the data of different concentrations and corresponding percentage inhibition rates to a four-parameter nonlinear logic formula with GraphPad prism.

PI3Kβ = molecular target: T2, PI3Kβ (Homo sapiens, UniProt P42338); test: ADP-Glo lipid kinase assay, PI3Kβ kinase activity; format: biochemical; settings: 0.4 nM enzyme, 90 min, 100 μM ATP
T2 construct: purchased Carna 11-102
T2 sequence (P42338 whole entry): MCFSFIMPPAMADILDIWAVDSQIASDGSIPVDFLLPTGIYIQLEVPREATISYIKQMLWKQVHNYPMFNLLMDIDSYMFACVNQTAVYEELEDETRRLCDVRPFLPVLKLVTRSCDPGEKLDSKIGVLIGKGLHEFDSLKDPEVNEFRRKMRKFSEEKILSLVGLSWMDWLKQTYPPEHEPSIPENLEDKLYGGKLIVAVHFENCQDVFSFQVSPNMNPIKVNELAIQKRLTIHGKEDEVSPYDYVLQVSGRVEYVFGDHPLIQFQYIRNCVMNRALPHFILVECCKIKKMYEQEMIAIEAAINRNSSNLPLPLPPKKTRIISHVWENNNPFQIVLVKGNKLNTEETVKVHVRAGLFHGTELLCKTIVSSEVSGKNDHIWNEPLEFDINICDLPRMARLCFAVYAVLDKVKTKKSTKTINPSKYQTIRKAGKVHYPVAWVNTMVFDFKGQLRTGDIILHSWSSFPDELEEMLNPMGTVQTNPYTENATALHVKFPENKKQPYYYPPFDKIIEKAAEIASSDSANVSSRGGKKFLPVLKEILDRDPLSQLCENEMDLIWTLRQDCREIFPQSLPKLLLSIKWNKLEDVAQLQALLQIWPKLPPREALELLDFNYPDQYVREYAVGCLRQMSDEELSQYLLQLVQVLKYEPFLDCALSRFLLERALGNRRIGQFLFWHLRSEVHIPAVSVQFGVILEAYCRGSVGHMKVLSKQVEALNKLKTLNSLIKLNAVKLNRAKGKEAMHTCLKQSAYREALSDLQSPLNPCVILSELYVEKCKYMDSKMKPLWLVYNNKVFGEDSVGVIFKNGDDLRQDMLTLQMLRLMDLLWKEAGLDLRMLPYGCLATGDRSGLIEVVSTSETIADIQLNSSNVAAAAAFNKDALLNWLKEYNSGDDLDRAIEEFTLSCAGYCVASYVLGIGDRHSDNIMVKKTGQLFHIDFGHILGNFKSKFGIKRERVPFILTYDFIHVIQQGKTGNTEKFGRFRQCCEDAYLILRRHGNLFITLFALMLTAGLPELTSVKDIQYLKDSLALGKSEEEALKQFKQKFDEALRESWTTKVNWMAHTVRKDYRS
T2 sequence (P27986 whole entry partner): as the sequence (P27986 whole entry partner) above
Protocol: as §1, §2, §3

PI3Kγ = molecular target: T3, PI3Kγ (Homo sapiens, UniProt P48736); test: ADP-Glo lipid kinase assay, PI3Kγ kinase activity; format: biochemical; settings: 0.4 nM enzyme, 120 min, 50 μM ATP
T3 construct: purchased Thermofisher PV4786
T3 sequence (P48736 whole entry): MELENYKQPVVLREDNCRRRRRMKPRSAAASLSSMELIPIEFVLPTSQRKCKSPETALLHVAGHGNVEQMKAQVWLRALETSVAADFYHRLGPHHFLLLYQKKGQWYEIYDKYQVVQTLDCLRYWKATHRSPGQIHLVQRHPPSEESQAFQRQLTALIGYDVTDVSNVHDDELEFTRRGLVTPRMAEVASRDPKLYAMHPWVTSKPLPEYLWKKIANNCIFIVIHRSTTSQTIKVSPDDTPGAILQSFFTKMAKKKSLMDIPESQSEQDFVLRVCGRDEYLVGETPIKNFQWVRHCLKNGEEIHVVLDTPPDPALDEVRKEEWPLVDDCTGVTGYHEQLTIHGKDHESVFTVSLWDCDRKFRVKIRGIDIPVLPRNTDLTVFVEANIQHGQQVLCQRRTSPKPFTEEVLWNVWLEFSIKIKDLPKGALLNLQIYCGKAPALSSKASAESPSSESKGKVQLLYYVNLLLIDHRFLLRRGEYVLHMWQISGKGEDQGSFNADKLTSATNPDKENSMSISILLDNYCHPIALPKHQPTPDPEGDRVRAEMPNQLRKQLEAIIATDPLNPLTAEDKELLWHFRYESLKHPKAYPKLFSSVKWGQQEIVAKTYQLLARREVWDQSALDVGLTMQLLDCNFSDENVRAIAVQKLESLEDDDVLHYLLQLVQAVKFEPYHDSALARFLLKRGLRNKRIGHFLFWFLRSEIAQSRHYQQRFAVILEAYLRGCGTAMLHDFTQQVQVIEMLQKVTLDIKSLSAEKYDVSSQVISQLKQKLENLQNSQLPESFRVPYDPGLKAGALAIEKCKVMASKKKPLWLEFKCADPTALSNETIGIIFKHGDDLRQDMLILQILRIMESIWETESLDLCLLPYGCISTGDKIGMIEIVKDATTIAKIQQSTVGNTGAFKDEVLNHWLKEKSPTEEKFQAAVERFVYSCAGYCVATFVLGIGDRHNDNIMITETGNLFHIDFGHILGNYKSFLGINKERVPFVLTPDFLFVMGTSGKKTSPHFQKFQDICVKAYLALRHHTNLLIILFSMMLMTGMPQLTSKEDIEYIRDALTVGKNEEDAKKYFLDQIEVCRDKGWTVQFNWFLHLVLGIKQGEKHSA
Protocol: as §1, §2, §3

PI3Kδ = molecular target: T4, PI3Kδ (Homo sapiens, UniProt O00329); test: ADP-Glo lipid kinase assay, PI3Kδ kinase activity; format: biochemical; settings: 0.1 nM enzyme, 90 min, 100 μM ATP
T4 construct: purchased Carna 11-103
T4 sequence (O00329 whole entry): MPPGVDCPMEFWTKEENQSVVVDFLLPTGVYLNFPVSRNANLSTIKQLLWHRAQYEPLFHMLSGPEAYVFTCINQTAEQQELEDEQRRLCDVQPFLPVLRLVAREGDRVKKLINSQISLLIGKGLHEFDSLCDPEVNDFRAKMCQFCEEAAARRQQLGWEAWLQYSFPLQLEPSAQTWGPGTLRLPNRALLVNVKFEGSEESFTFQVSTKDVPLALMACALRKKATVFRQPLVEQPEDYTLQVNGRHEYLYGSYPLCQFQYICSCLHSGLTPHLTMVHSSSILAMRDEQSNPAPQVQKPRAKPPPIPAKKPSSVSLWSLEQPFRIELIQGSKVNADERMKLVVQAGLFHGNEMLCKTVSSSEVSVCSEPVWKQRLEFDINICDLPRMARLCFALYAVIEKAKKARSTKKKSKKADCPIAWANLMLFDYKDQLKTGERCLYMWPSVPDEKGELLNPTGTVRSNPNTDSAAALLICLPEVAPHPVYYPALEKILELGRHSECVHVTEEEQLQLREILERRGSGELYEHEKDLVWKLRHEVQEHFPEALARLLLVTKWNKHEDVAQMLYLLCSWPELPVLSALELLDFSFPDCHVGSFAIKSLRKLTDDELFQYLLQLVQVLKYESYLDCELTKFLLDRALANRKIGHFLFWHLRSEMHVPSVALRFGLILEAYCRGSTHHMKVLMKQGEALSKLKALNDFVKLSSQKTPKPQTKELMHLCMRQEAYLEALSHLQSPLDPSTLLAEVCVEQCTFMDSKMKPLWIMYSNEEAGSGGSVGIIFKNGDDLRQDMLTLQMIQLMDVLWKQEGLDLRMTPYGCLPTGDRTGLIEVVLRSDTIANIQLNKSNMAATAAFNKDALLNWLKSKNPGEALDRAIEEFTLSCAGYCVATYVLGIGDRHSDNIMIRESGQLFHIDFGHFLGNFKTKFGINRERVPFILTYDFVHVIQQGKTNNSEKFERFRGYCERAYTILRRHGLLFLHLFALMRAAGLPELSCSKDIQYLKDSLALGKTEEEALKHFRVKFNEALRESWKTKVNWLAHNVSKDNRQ
T4 sequence (P27986 whole entry partner): as the sequence (P27986 whole entry partner) above
Protocol: as §1, §2, §3

[1] = Pharmacokinetic (PK) assay in mice; format: in vivo; settings: male, Balb/c, mouse, plasma, po, single intragastric 5 mg/kg; for AUC(0-t): read-out: Area under curve AUC0-t; for AUC(0-inf): read-out: Area under curve AUC0-∞; for half-life: read-out: Half-life t1/2(h) (converted); for MRT: read-out: Mean residence time MRT; for Tmax: read-out: Peak time tmax; for Cmax: read-out: Plasma concentration Cmax
Protocol: The pharmacokinetic assay of the preferred compounds of the examples of the present invention in mice was carried out in Balb/c male mice (Shanghai Jiesijie Laboratory Animal Co., LTD). • Administration mode: single intragastric administration. • Administration dose: 5 mg/10 ml/kg (body weight). • Formulation: the compound was dissolved in 0.5% CMC-Na by ultrasound to obtain a clear solution or homogeneous suspension. • Sampling points: 0.5, 1, 2, 4, 6, 8 and 24 hours after administration. • Sample process: • 1) 0.1 mL of blood was taken from the orbit, placed in a K2-EDTA tube, and centrifuged for 5 to 20 minutes at room temperature at 1000 to 3000×g to separate the plasma, which was then stored at −80° C. • 2) 160 uL of acetonitrile was added to 40 uL of plasma sample for precipitation, and then the mixture was centrifuged for 5 to 20 minutes at 500 to 2000×g. • 3) 100 uL of processed supernatant was taken and analyzed by LC/MS/MS assay to determine the concentration of the test compound. • LC-MS/MS assay: • Liquid chromatography condition: Shimadzu LC-20AD pump • Mass spectrometry condition: AB Sciex API 4000 mass spectrometer • Chromatographic column: phenomenex Gemiu 5 μm C18 50×4.6 mm • Mobile phase: solution A was 0.1% aqueous formic acid solution, and solution B was acetonitrile • Flow rate: 0.8 mL/min • Elution time: 0-4 minutes gradient elution • Pharmacokinetics: […]
The main parameters were calculated using WinNonlin 6.1.

[2] = Toxicity test of a 7-day repeatedly intragastric administration in SD rats; format: in vivo
Description: (§4) 1) In the experiment, 112 rats (56 rats/sex) were divided into 14 groups by sex and body weight, wherein 70 rats were used for toxicology study (groups 1 to 7, 5 rats/sex/group) and 42 rats were used for toxicokinetics study (groups 8 to 14, 3 rats/sex/group).
2) As the vehicle control group, the animals in groups 1 and 8 were intragastrically administered 20% aqueous SBE-(3-CD (Captisol) solution.
(§5) 3) The animals in groups 2 and 9, groups 3 and 10, and groups 4 and 11 were intragastrically administered GDC-0077 at 10, 30 and 60 mg/kg, respectively.
(§6) 4) The animals in groups 5 and 12, groups 6 and 13, and groups 7 and 14 were intragastrically administered the compound of Example 51 at 10, 30 and 60 mg/kg, respectively.
(§7) 5) The animals were administered once a day for 7 consecutive days (the animals in groups 7 and 14 were administered for 6 consecutive days).
6) The administration volume was 10 mL/kg.
(§8) 7) During the experiment, items such as clinical observation, body weight, food intake, clinicopathological indicators (blood cell count, coagulation function, blood biochemistry), toxicokinetics and the like were studied.
8) All animals were euthanized on Day 8 (the animals in groups 7 and 14 were euthanized after administration on Day 6).
9) During the experiment, gross anatomy observation was carried out on animals in groups 1 to 7, animals in group 14 and dead animals (including animals in toxicokinetics study), and histopathological examination was carried out on abnormal tissues, gastrointestinal tissues (such as colon and cecum) and immune tissues (such as thymus).

[3] = Toxicokinetics in the 7-day repeated intragastric administration study in SD rats; format: in vivo, Sprague-Dawley (SD) rats; settings: Sprague-Dawley, rat, plasma, po, read-out: average system exposure AUC
Description: Liquid chromatography−mass spectrometry (detector: API4000, electrospray source (ESI) positive ion mode, column: Agilent ZORBAX XDB-C18 (3.5 μm, 2.1×50 mm)), which was used for the biological analysis of plasma sample.
as §4, §5, §6, §7, §8

[4] = SD rats, 10, 30 and 60 mg/kg (low, middle, high dose)

SMILES	IC50 (PI3Kα)	IC50 (PI3Kβ)	IC50 (PI3Kγ)	IC50 (PI3Kδ)	AUC(0-t) [1]	AUC(0-inf) [1]	half-life [1]	MRT [1]	Tmax [1]	Cmax [1]	other results
C[C@H](Nc1ccc2c(c1F)OCCn1cc(N3C(=O)OC[C@H]3C(F)F)nc1-2)C(N)=O [Example 77, (S)-2-((2-((S)-4-(Difluoromethyl)-2-oxooxazolidin-3-yl)-8-fluoro-5,6-dihydrobenzo[f]imidazo[1,2-d][1,4]oxazepin-9-yl)amino)propanamide]	5.2 nM	924 nM	450 nM	306 nM	4090 ng·h/mL	4120 ng·h/mL	1.2 h	1.7 h	0.5 h	2300 ng/mL	
NC(=O)[C@@H]1CCCN1c1ccc2c(c1)OCCn1cc(N3C(=O)SC[C@H]3C(F)F)nc1-2 [Example 111, (S)-1-(2-((R)-4-(difluoromethyl)-2-oxothiazolidin-3-yl)-5,6-dihydrobenzo[f]imidazo[1,2-d][1,4]oxazepin-9-yl)pyrrolidine-2-carboxamide]	2.9 nM	1230 nM	736 nM	125 nM	1740 ng·h/mL	1740 ng·h/mL	2.8 h	3.9 h	0.5 h	466 ng/mL	
C[C@H](Nc1ccc2c(c1)OCCn1cc(N3C(=O)OC[C@H]3C(F)F)nc1-2)C(N)=O [GDC-0077, reference compound]											main target organs of the toxicity ([2]; SD rats): gastrointestinal tissues (such as stomach and cecum) and immune tissues (such as thymus); Blood cell counting and coagulation function ([2]; SD rats, 10, 30 and 60 mg/kg): In each dose group, Retic decreased in both male and female animals; Pathology, pathological changes under the microscope ([2]; SD rats, 10, 30 and 60 mg/kg): atrophy of goblet cells in the cecal mucosa, increase in thymic tingible body macrophages, and erosion, bleeding and edema of gastric mucosal; Body weight and food intake [2, 4]: In the middle-dose and high-dose groups, the final body weight of all animals declined, and their food intake also declined during the same period; Clinical observation [2, 4]: In the high-dose group, abnormal symptoms such as arched back, loose stools, perianal contamination and fluffy coat were observed; Near-death/death ([2]; SD rats, dose of 60 mg/kg): near-dead/dead animals were found; lethal dose ([2]; SD rats, intragastric once/day for 7 days): 60 mg/kg; MTD at 7 days ([2]; both sexes, Sprague-Dawley, rat, in vivo, po, SD rats, intragastric once/day for 7 days, read-out: maximum tolerated dose (MTD)): 30 mg/kg; AUC ([3]; 10 mg/kg intragastric once a day, after the last administration, female): 2250 ng·h/mL; AUC ([3]; 10 mg/kg intragastric once a day, after the last administration, male): 845 ng·h/mL; AUC ([3]; 30 mg/kg intragastric once a day, after the last administration, female): 6510 ng·h/mL; AUC ([3]; 30 mg/kg intragastric once a day, after the last administration, male): 3000 ng·h/mL; AUC ([3]; 60 mg/kg intragastric, after the first administration, female): 22800 ng·h/mL; AUC ([3]; 60 mg/kg intragastric, after the first administration, male): 15400 ng·h/mL

More lines, in order of falling IC50 (PI3Kα), values ahead:

IC50 (PI3Kα)	IC50 (PI3Kβ)	IC50 (PI3Kγ)	IC50 (PI3Kδ)	AUC(0-t) [1]	AUC(0-inf) [1]	half-life [1]	MRT [1]	Tmax [1]	Cmax [1]	SMILES	other results
2.4 nM	472 nM	247 nM	194 nM	4240 ng·h/mL	4240 ng·h/mL	2 h	3.4 h	0.5 h	1230 ng/mL	C[C@H](Nc1ccc2c(c1F)OCCn1cc(N3C(=O)SC[C@H]3C(F)F)nc1-2)C(N)=O [Example 108, (S)-2-((2-((R)-4-(difluoromethyl)-2-oxothiazolidin-3-yl)-8-fluoro-5,6-dihydrobenzo[f]imidazo[1,2-d][1,4]oxazepin-9-yl)amino)propanamide]	
1.2 nM	1800 nM	481 nM	336 nM	1560 ng·h/mL	1620 ng·h/mL	1.8 h	2 h	1 h	832 ng/mL	C[C@H](Nc1ccc2c(c1)OCCn1cc(N3C(=O)O[C@H](C)[C@H]3C(F)F)nc1-2)C(N)=O [Example 54, (S)-2-((2-((4S,5R)-4-(difluoromethyl)-5-methyl-2-oxooxazolidin-3-yl)-5,6-dihydrobenzo[f]imidazo[1,2-d][1,4]oxazepin-9-yl)amino)propanamide]	
1 nM	754 nM	376 nM	139 nM	13700 ng·h/mL	13700 ng·h/mL	2.8 h	3.7 h	0.5 h	4020 ng/mL	COC[C@H](Nc1ccc2c(c1)OCCn1cc(N3C(=O)SC[C@H]3C(F)F)nc1-2)C(N)=O [Example 110, (S)-2-((2-((R)-4-(difluoromethyl)-2-oxothiazolidin-3-yl)-5,6-dihydrobenzo[f]imidazo[1,2-d][1,4]oxazepin-9-yl)amino)-3-methoxypropanamide]	
